What all share (experiment): relative viability (nuclei count vs DMSO), 5 days (fraction); higher = more cells survive
Compound in test [1]: C[C@@H](N)c1ccc(C(=O)Nc2ccnc3[nH]ccc23)cc1 + CCNC(=O)c1noc(-c2cc(C(C)C)c(O)cc2O)c1-c1ccc(CN2CCOCC2)cc1 [Luminespib] (partner 0.01 µM)
The method, boiled down: (§1)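 Lung cancer cell lines in 1536-well plates got either a single drug or a fixed anchor-drug dose together with five library-drug doses (not always all listed) in √10 steps, by pin tool, on the day after seeding. Nuclei were counted after 5 days, and relative viability is the treated-to-vehicle ratio of nuclei counts. Values are medians of duplicate plates.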

Compound in test [2]: C[C@@H](N)c1ccc(C(=O)Nc2ccnc3[nH]ccc23)cc1 + O=C(c1cc(Cc2n[nH]c(=O)c3ccccc23)ccc1F)N1CCN(C(=O)C2CC2)CC1 [Olaparib] (partner 8 µM)
The method, boiled down: as §1

Compound in the test “Tanzisertib + Lapatinib”: O[C@H]1CC[C@H](Nc2ncc3nc(Nc4c(F)cc(F)cc4F)n([C@H]4CCOC4)c3n2)CC1 [Tanzisertib] + CS(=O)(=O)CCNCc1ccc(-c2ccc3ncnc(Nc4ccc(OCc5cccc(F)c5)c(Cl)c4)c3c2)o1 [Lapatinib] (partner 2 µM)
The method, boiled down:
as §1

Compound in the test “Tanzisertib + Decitabine”: O[C@H]1CC[C@H](Nc2ncc3nc(Nc4c(F)cc(F)cc4F)n([C@H]4CCOC4)c3n2)CC1 [Tanzisertib] + Nc1ncn([C@H]2C[C@H](O)[C@@H](CO)O2)c(=O)n1 [Decitabine] (partner 2 µM)
The method, boiled down: as §1

For NCI-H3122, the relative viability in test [1] (first compound 0.04 µM) is 0.0997; in test [1] (first compound 0.1265 µM) it was 0.0955; in test [1] (first compound 0.4 µM) it was 0.113; in test [1] (first compound 1.265 µM), 0.162; in test [1] (first compound 4 µM) it was 0.124; in test [2] (first compound 0.04 µM) it was 0.625. The relative viability in test [2] (first compound 0.1265 µM) was found to be 0.613; in test [2] (first compound 0.4 µM) it was 0.638; in test [2] (first compound 1.265 µM), 0.702; in test [2] (first compound 4 µM), 0.622; in the test with Tanzisertib + Lapatinib (first compound 0.08 µM) it was 1.03; with Tanzisertib + Lapatinib (first compound 0.253 µM), 1.01. For the same cell line, the relative viability in the test with Tanzisertib + Lapatinib (first compound 0.8 µM) was determined as 0.998; with Tanzisertib + Lapatinib (first compound 2.53 µM) it was 1.06; with Tanzisertib + Lapatinib (first compound 8 µM), 1.06; in the test with Tanzisertib + Decitabine (first compound 0.08 µM), 0.43; in the test with Tanzisertib + Decitabine (first compound 0.253 µM), 0.409; in the test with Tanzisertib + Decitabine (first compound 0.8 µM), 0.412. Further, the relative viability in the test with Tanzisertib + Decitabine (first compound 2.53 µM) came to 0.366; in the test with Tanzisertib + Decitabine (first compound 8 µM) it was 0.439.
On to PC-3 [JPC-3], for which the relative viability is 0.714 in test [1] (first compound 0.04 µM); 0.68 in test [1] (first compound 0.1265 µM); 0.73 in test [1] (first compound 0.4 µM); 0.846 in test [1] (first compound 1.265 µM); 0.607 in test [1] (first compound 4 µM); 0.968 in test [2] (first compound 0.04 µM). The relative viability in test [2] (first compound 0.1265 µM) came to 1.22; in test [2] (first compound 0.4 µM) it was 1.13; in test [2] (first compound 1.265 µM), 1.23; in test [2] (first compound 4 µM), 1.01; in the test with Tanzisertib + Lapatinib (first compound 0.08 µM), 0.466; with Tanzisertib + Lapatinib (first compound 0.253 µM), 0.406. For the same cell line, the relative viability with Tanzisertib + Lapatinib (first compound 0.8 µM) was determined as 0.494; with Tanzisertib + Lapatinib (first compound 2.53 µM) it was 0.422; with Tanzisertib + Lapatinib (first compound 8 µM) it was 0.494; with Tanzisertib + Decitabine (first compound 0.08 µM), 0.836; in the test with Tanzisertib + Decitabine (first compound 0.253 µM) it was 0.787; with Tanzisertib + Decitabine (first compound 0.8 µM), 0.803. For the same cell line, the relative viability in the test with Tanzisertib + Decitabine (first compound 2.53 µM) was determined as 0.801; with Tanzisertib + Decitabine (first compound 8 µM), 0.737.
For PC-14, the relative viability in test [1] (first compound 0.1265 µM) came to 0.183; in test [1] (first compound 0.4 µM), 0.154; in test [1] (first compound 4 µM), 0.132; in test [2] (first compound 0.04 µM), 0.281; in test [2] (first compound 0.1265 µM), 0.233; in test [2] (first compound 0.4 µM), 0.263. The relative viability amounted to 0.29 in test [2] (first compound 1.265 µM); 0.271 in test [2] (first compound 4 µM); 0.34 in the test with Tanzisertib + Lapatinib (first compound 0.08 µM); 0.303 in the test with Tanzisertib + Lapatinib (first compound 0.253 µM); 0.26 with Tanzisertib + Lapatinib (first compound 0.8 µM); 0.341 in the test with Tanzisertib + Lapatinib (first compound 2.53 µM). Also, the relative viability with Tanzisertib + Lapatinib (first compound 8 µM) is 0.311; in the test with Tanzisertib + Decitabine (first compound 0.08 µM) it was 0.261; with Tanzisertib + Decitabine (first compound 0.253 µM), 0.23; in the test with Tanzisertib + Decitabine (first compound 0.8 µM), 0.212; with Tanzisertib + Decitabine (first compound 2.53 µM), 0.192; with Tanzisertib + Decitabine (first compound 8 µM), 0.202.
For the cell line RERF-LC-KJ, the relative viability turned out to be 1.22 in test [1] (first compound 0.04 µM); 1.3 in test [1] (first compound 0.1265 µM); 1.26 in test [1] (first compound 0.4 µM); 1.2 in test [1] (first compound 1.265 µM); 1.25 in test [1] (first compound 4 µM); 0.879 in test [2] (first compound 0.04 µM). The relative viability was 0.906 in test [2] (first compound 0.1265 µM); 0.894 in test [2] (first compound 0.4 µM); 0.934 in test [2] (first compound 1.265 µM); 0.86 in test [2] (first compound 4 µM); 0.872 with Tanzisertib + Lapatinib (first compound 0.08 µM); 0.873 in the test with Tanzisertib + Lapatinib (first compound 0.253 µM). The relative viability with Tanzisertib + Lapatinib (first compound 0.8 µM) came to 0.884; with Tanzisertib + Lapatinib (first compound 2.53 µM), 0.8; with Tanzisertib + Lapatinib (first compound 8 µM), 0.892; in the test with Tanzisertib + Decitabine (first compound 0.08 µM) it was 0.75; with Tanzisertib + Decitabine (first compound 0.253 µM), 0.771; in the test with Tanzisertib + Decitabine (first compound 0.8 µM), 0.705. Moreover, the values for the relative viability in the test with Tanzisertib + Decitabine (first compound 2.53 µM) and with Tanzisertib + Decitabine (first compound 8 µM) were 0.688 and 0.628, respectively.
Consider SK-LU-1, for which the relative viability in test [1] (first compound 0.04 µM) amounted to 0.229; in test [1] (first compound 0.1265 µM) it was 0.208; in test [1] (first compound 0.4 µM), 0.187; in test [1] (first compound 1.265 µM) it was 0.176; in test [1] (first compound 4 µM) it was 0.163; in test [2] (first compound 0.04 µM), 0.459. Moreover, the relative viability in test [2] (first compound 0.1265 µM) came to 0.446; in test [2] (first compound 0.4 µM), 0.436; in test [2] (first compound 1.265 µM), 0.321; in test [2] (first compound 4 µM), 0.376; with Tanzisertib + Lapatinib (first compound 0.08 µM) it was 1.1; with Tanzisertib + Lapatinib (first compound 0.253 µM), 0.869. The relative viability with Tanzisertib + Lapatinib (first compound 0.8 µM) was found to be 0.855; with Tanzisertib + Lapatinib (first compound 2.53 µM), 0.994; in the test with Tanzisertib + Lapatinib (first compound 8 µM), 0.816; with Tanzisertib + Decitabine (first compound 0.08 µM), 0.707; with Tanzisertib + Decitabine (first compound 0.253 µM) it was 0.796; with Tanzisertib + Decitabine (first compound 0.8 µM) it was 0.623. Besides, the relative viability with Tanzisertib + Decitabine (first compound 2.53 µM) turned out to be 0.616; with Tanzisertib + Decitabine (first compound 8 µM), 0.647.
On to SK-MES-1, for which the relative viability is 0.834 in test [1] (first compound 0.04 µM); 0.796 in test [1] (first compound 0.1265 µM); 0.752 in test [1] (first compound 0.4 µM); 0.585 in test [1] (first compound 1.265 µM); 0.714 in test [1] (first compound 4 µM); 0.813 in test [2] (first compound 0.04 µM). The relative viability was determined as 0.834 in test [2] (first compound 0.1265 µM); 0.697 in test [2] (first compound 0.4 µM); 0.639 in test [2] (first compound 1.265 µM); 0.638 in test [2] (first compound 4 µM); 0.49 in the test with Tanzisertib + Lapatinib (first compound 0.08 µM); 0.438 in the test with Tanzisertib + Lapatinib (first compound 0.253 µM). Moreover, the relative viability came to 0.455 with Tanzisertib + Lapatinib (first compound 0.8 µM); 0.509 with Tanzisertib + Lapatinib (first compound 2.53 µM); 0.466 with Tanzisertib + Lapatinib (first compound 8 µM); 0.365 with Tanzisertib + Decitabine (first compound 0.08 µM); 0.409 with Tanzisertib + Decitabine (first compound 0.253 µM); 0.364 with Tanzisertib + Decitabine (first compound 0.8 µM). The results for the relative viability with Tanzisertib + Decitabine (first compound 2.53 µM) and in the test with Tanzisertib + Decitabine (first compound 8 µM) were 0.34 and 0.327, respectively.
Turning to SW 1573, the relative viability is 0.311 in test [1] (first compound 0.04 µM); 0.37 in test [1] (first compound 0.1265 µM); 0.212 in test [1] (first compound 0.4 µM); 0.304 in test [1] (first compound 1.265 µM); 0.249 in test [1] (first compound 4 µM); 0.534 in test [2] (first compound 0.04 µM). The relative viability in test [2] (first compound 0.1265 µM) came out at 0.531; in test [2] (first compound 0.4 µM), 0.446; in test [2] (first compound 1.265 µM) it was 0.44; in test [2] (first compound 4 µM), 0.361; with Tanzisertib + Lapatinib (first compound 0.08 µM) it was 0.625; with Tanzisertib + Lapatinib (first compound 0.253 µM), 1.09. The relative viability came out at 1 with Tanzisertib + Lapatinib (first compound 0.8 µM); 1.01 with Tanzisertib + Lapatinib (first compound 2.53 µM); 1.1 in the test with Tanzisertib + Lapatinib (first compound 8 µM); 0.595 in the test with Tanzisertib + Decitabine (first compound 0.08 µM); 0.471 with Tanzisertib + Decitabine (first compound 0.253 µM); 0.535 with Tanzisertib + Decitabine (first compound 0.8 µM). Besides, the relative viability in the test with Tanzisertib + Decitabine (first compound 2.53 µM) was found to be 0.516; in the test with Tanzisertib + Decitabine (first compound 8 µM), 0.394.

Source of the values: the supplement of paper PMC10307832.
